The values below come from PubChem BioAssay (NCI).

Test systems include HCT-116 colon; HCT-15 colon; HOP-62 NSCLC; MDA-MB-231 breast; NCI-H522 lung; NCI/ADR-RES ovarian; OVCAR-3 ovarian; RPMI-8226 leukemia; SW-620 colon; UACC-62 melanoma.
What all share (test): NCI tumour cell line growth inhibition, 48 h

Where “and” joins values, the source holds several entries; their conditions need not be identical. Equal values may be shown once.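 Compound exposure: 48 hours, 5 concentrations, 96-well plates. GI50 is the concentration that inhibits growth by half. The concentration for full growth arrest is given as TGI.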 Some results are limits rather than exact numbers.

As to `CCNCCNc1cc(-c2ccc(C(F)(F)F)cc2)c(C#N)c2nc3cc(Cl)c(Cl)cc3n12`, the GI50 with HCT-116 colon is 0.177 µM; with HCT-15 colon, 0.289 µM; in the test with HOP-62 NSCLC, 1.96 µM; in the test on MDA-MB-231 breast, 1.51 µM; in the test with NCI-H522 lung, 1.78 µM; in the test on NCI/ADR-RES ovarian, 1.49 µM. In addition, the GI50 in the test with OVCAR-3 ovarian was 1.66 µM; in the test on RPMI-8226 leukemia it was 1.71 µM; in the test on SW-620 colon, 0.306 µM; in the test on UACC-62 melanoma, 1.84 µM. The TGI with HCT-116 colon was 0.338 µM; with HCT-15 colon it was 0.935 µM; with HOP-62 NSCLC, 3.56 µM; with MDA-MB-231 breast, 3.1 µM; in the test on NCI-H522 lung it was 3.37 µM; with NCI/ADR-RES ovarian it was 3.33 µM. The TGI in the test on OVCAR-3 ovarian was found to be 3.13 µM; in the test with RPMI-8226 leukemia, 3.85 µM; in the test on SW-620 colon, 1.14 µM; in the test with UACC-62 melanoma it was 3.57 µM.

For the compound `O=c1oc2ccc(Br)cc2c(=O)n1-c1ccc(Cl)cc1F`, the GI50 is 1.14 µM with HCT-116 colon; 1.7 µM with HCT-15 colon; 2.17 µM in the test on HOP-62 NSCLC; 0.897 µM in the test on MDA-MB-231 breast; 0.586 µM in the test with NCI-H522 lung; 1.41 µM with NCI/ADR-RES ovarian. Besides, the GI50 is 0.641 µM with OVCAR-3 ovarian, 0.446 µM in the test on RPMI-8226 leukemia, 1.84 µM in the test with SW-620 colon and 0.33 µM with UACC-62 melanoma. In addition, the TGI amounted to 4.33 µM in the test on HCT-116 colon; 9.52 µM in the test on HCT-15 colon; 9.13 µM with HOP-62 NSCLC; 5.99 µM in the test with MDA-MB-231 breast; 7.69 µM with NCI-H522 lung; 6.95 µM with NCI/ADR-RES ovarian. The TGI came out at 8.85 µM in the test on OVCAR-3 ovarian, 2.97 µM in the test with RPMI-8226 leukemia, 11.2 µM with SW-620 colon and 1.41 µM in the test with UACC-62 melanoma.

Regarding `O=C(c1ccccc1)c1nc2ccc(C(F)(F)F)cc2nc1N1CCN(c2ccccc2)CC1`, the GI50 in the test with HCT-116 colon was 24.7 µM; with HCT-15 colon it was 20.5 µM; with HOP-62 NSCLC it was 60.9 µM; in the test with MDA-MB-231 breast, 23.4 µM; with NCI-H522 lung, 34.6 µM; in the test on NCI/ADR-RES ovarian it was 34.2 µM. The GI50 was 19.3 µM in the test on OVCAR-3 ovarian, 23.3 µM in the test on RPMI-8226 leukemia, 34.7 µM in the test on SW-620 colon and 18.5 µM with UACC-62 melanoma. Further, the TGI was 53.7 µM in the test on HCT-116 colon; 50.1 µM with HCT-15 colon; above 100 µM in the test with HOP-62 NSCLC; 63.9 µM with MDA-MB-231 breast; 91.3 µM in the test with NCI-H522 lung; above 100 µM with NCI/ADR-RES ovarian. Besides, the TGI is 39.5 µM with OVCAR-3 ovarian, above 100 µM in the test with RPMI-8226 leukemia, above 100 µM in the test with SW-620 colon and 43.2 µM in the test with UACC-62 melanoma.

Regarding `COc1ccc(NC(=O)c2ccc(NC3=C(Cl)C(=O)N(Cc4ccccc4)C3=O)cc2)c(OC)c1`, the GI50 is 5.4 µM with HCT-116 colon; 20 µM in the test on HCT-15 colon; 19 µM in the test on HOP-62 NSCLC; above 100 µM in the test with MDA-MB-231 breast; 19 µM with NCI-H522 lung; 17.8 µM with NCI/ADR-RES ovarian. In addition, the GI50 is 15.1 µM in the test with OVCAR-3 ovarian, 4.85 µM in the test with RPMI-8226 leukemia, 29.2 µM in the test on SW-620 colon and 37.2 µM in the test with UACC-62 melanoma. Besides, the TGI was 25.6 µM in the test on HCT-116 colon; 46.3 µM in the test on HCT-15 colon; 53.7 µM in the test on HOP-62 NSCLC; above 100 µM in the test with MDA-MB-231 breast; 68.9 µM with NCI-H522 lung; 47.3 µM with NCI/ADR-RES ovarian. Further, the TGI was 33.2 µM in the test on OVCAR-3 ovarian, 22.8 µM with RPMI-8226 leukemia, above 100 µM with SW-620 colon and above 100 µM in the test with UACC-62 melanoma.

`COc1cc(C2CC(=O)Nc3c2c(C)nn3-c2nc3ccccc3[nH]2)cc(OC)c1O` (centres undefined): the GI50 is 3.45 µM in the test on HCT-116 colon; 3.69 µM in the test on HCT-15 colon; 3.72 µM with HOP-62 NSCLC; 2.98 µM with MDA-MB-231 breast; 2.38 µM in the test on NCI-H522 lung; 7.81 µM with NCI/ADR-RES ovarian. In addition, the GI50 is 2.95 µM with OVCAR-3 ovarian, 3.07 µM in the test on RPMI-8226 leukemia, 3.04 µM with SW-620 colon and 2.06 µM with UACC-62 melanoma. Further, the TGI in the test with HCT-116 colon was above 100 µM; in the test with HCT-15 colon, above 100 µM; in the test with HOP-62 NSCLC it was 17 µM; in the test on MDA-MB-231 breast, 8.15 µM; in the test with NCI-H522 lung, 5.78 µM; in the test on NCI/ADR-RES ovarian, above 78.2 µM. In addition, the TGI in the test with OVCAR-3 ovarian was 7.78 µM; in the test with RPMI-8226 leukemia it was 12.5 µM; in the test with SW-620 colon, 17.4 µM; in the test on UACC-62 melanoma it was 4.9 µM.

Turning to `COc1ccc(OC)c(/C=C/c2ccnc3ccccc23)c1`, the TGI came to 8.09 µM with HCT-116 colon; 17.3 µM in the test on HCT-15 colon; 18 µM with HOP-62 NSCLC; 9.44 µM in the test on MDA-MB-231 breast; 1.79 µM in the test on NCI-H522 lung; 1.56 µM in the test with NCI/ADR-RES ovarian. The TGI came out at 1.76 µM in the test on OVCAR-3 ovarian, 26.3 µM in the test with RPMI-8226 leukemia, 16.2 µM with SW-620 colon and 7.59 µM with UACC-62 melanoma.

As for `COC(=O)[C@@H](C)C[C@H](Cc1ccccc1)NC(=O)c1csc([C@@H](C[C@H](C(C)C)N(C)C(=O)[C@@H](NC(=O)[C@H]2CCCN2C)C2CC2)OC(C)=O)n1`, the GI50 in the test on HCT-116 colon is 0.000389 µM; with HCT-15 colon it was 0.00495 µM and 0.0025 µM; in the test on HOP-62 NSCLC it was 0.00255 µM and 0.0025 µM; in the test on MDA-MB-231 breast, 0.00165 µM and < 0.0025 µM; in the test on NCI-H522 lung, 0.000223 µM; in the test with NCI/ADR-RES ovarian, 0.276 µM and 0.262 µM. Moreover, the GI50 is 0.000198 µM with OVCAR-3 ovarian; 0.000262 µM and 0.0025 µM in the test on RPMI-8226 leukemia; 0.000508 µM and 0.0025 µM with SW-620 colon; 0.000445 µM and 0.0025 µM in the test on UACC-62 melanoma. For the same compound, the TGI with HCT-15 colon is above 25 µM; in the test with HOP-62 NSCLC, above 25 µM; in the test on MDA-MB-231 breast it was below 0.0025 µM; in the test on NCI-H522 lung it was 0.000814 µM; with NCI/ADR-RES ovarian it was above 25 µM; in the test with OVCAR-3 ovarian, 0.00695 µM. The TGI with RPMI-8226 leukemia is 12.2 µM; in the test with SW-620 colon, above 25 µM; in the test with UACC-62 melanoma, above 25 µM.

Consider `C=C1C(=O)O[C@H]2[C@H]1CC/C(CNC(=O)/C=C/c1ccccc1F)=C\CC[C@@]1(C)O[C@@H]21`, for which the GI50 is 0.482 µM with HCT-116 colon; 1.01 µM in the test on HCT-15 colon; 3.89 µM in the test with HOP-62 NSCLC; 1.93 µM with MDA-MB-231 breast; 0.399 µM in the test with NCI-H522 lung; 3.1 µM with NCI/ADR-RES ovarian. Further, the GI50 was 0.691 µM in the test with OVCAR-3 ovarian, 1.41 µM in the test on RPMI-8226 leukemia, 0.487 µM with SW-620 colon and 1.47 µM with UACC-62 melanoma. The TGI in the test on HCT-116 colon was 1.69 µM; in the test with HCT-15 colon, 2.49 µM; in the test with HOP-62 NSCLC, 16.6 µM; in the test on MDA-MB-231 breast it was 4.44 µM; with NCI-H522 lung it was 1.64 µM; in the test with NCI/ADR-RES ovarian it was 26.9 µM. Moreover, the TGI in the test with OVCAR-3 ovarian worked out at 2.1 µM; in the test with RPMI-8226 leukemia it was 5.84 µM; in the test on SW-620 colon it was 1.66 µM; in the test on UACC-62 melanoma, 2.94 µM.
